According to patent US20240269132A1, “COMPOSITIONS AND METHODS FOR TREATING POLYCYTHEMIA” (Disc Medicine, Inc., priority 0001, published 2024):

What was measured:
Type in all cases: in vivo, C57BL/6J mice
[1] = system: DPO-induced secondary erythrocytosis model; assay: DPO-induced secondary erythrocytosis murine model: CBC panel
Experimental: Darbepoietin-alpha (DPO) is a long-lasting analogue of EPO. To investigate the in vivo pharmacodynamic effect of GlyT1 inhibitor in preventing, treating, or reducing the progression rate and/or severity of polycythemia vera for longer periods, DPO was used to stimulate the production of red blood cells and mimicking the hematological features of polycythemia vera where JAK2 mutation drives the erythrocytosis.
(§1) Briefly, C57BL/6J mice were administrated with DPO subcutaneously at 10 μg/kg/week for 2 weeks to induce erythrocytosis resembling the pathological process of polycythemia vera (FIG. 2A). 30 mg/kg or 60 mg/kg of GlyT1 inhibitor bitopertin or vehicle control was administrated orally into wild type C57BL/6J mice (10 mice per group for the vehicle and 30 mg/kg groups; 15 mice for the 60 mg/kg group) once daily from day 7 to day 15. The 60 mg/kg group was dosed at 20 mg/kg on day 7, 40 mg/kg on day 8-9, 50 mg/kg on day 10-11, 60 mg/kg on day 12-15. Blood samples were collected from submaxillary on day 0 before the first DPO administration, on day 7 before the first dose of GlyT1 inhibitor, and on day 15, 6 hours after the dosing of GlyT1 inhibitor for CBC panel analysis using Sysmex XN-1000™ hematology analyzer.

[2] = system: EPO-induced secondary erythrocytosis model; assay: EPO-induced secondary erythrocytosis murine model: spleen index and CBC panel; settings: 30 mg/kg orally once daily
From the text: (§2) The EPO-induced secondary erythrocytosis model was used to evaluate the in vivo pharmacodynamic effect of GlyT1 inhibitor in preventing, treating, or reducing the progression rate and/or severity of polycythemia vera. Erythropoietin (EPO) stimulates the production of red blood cells and results in increased hematocrit in mice after daily dosing for 7 days at 50 IU. Therefore, the EPO model mimics the hematological parameters of polycythemia vera where JAK2 mutation drives the erythrocytosis. Briefly, 30 mg/kg of GlyT1 inhibitor bitopertin or vehicle control was administrated orally into wildtype C57BL/6J mice (10 mice per group) once daily from day 1 to day 15. 50 IU EPO was administrated daily by intraperitoneal route from day 8 to day 14 to induce erythrocytosis resembling the pathological process of polycythemia vera (FIG. 1A). Blood samples were collected from submaxillary on day 8 before the first EPO administration and on day 15, 6 hours after the last dose of GlyT1 inhibitor for CBC panel analysis using Sysmex XN-1000™ hematology analyzer. Bioanalysis of drug concentration was performed in plasma collected 6 hours after the last dose. All mice were weighed and humanely euthanized. The spleen was weighed and the spleen index was calculated via dividing the weight of spleen by the whole-body weight.

[3] = Body weight in the EPO-induced erythrocytosis study; settings: 30 mg/kg orally once daily, 14-day treatment, EPO model (FIG. 1B)
From the text: as §2

[4] = Plasma drug concentration in the EPO-induced erythrocytosis study; settings: C57BL/6J, mouse, po, 6 hours after the last dose, 30 mg/kg orally once daily day 1 to 15, mice (FIG. 1C)
From the text: as §2

[5] = Body weight in the DPO-induced erythrocytosis study; settings: 30 or 60 mg/kg orally once daily, 8-day treatment, DPO model (FIG. 2B)
Experimental: as §1

concentration at 6 h [4]: 639 ± 38 ng/mL
Compound: C[C@H](Oc1ccc(S(C)(=O)=O)cc1C(=O)N1CCN(c2ncc(C(F)(F)F)cc2F)CC1)C(F)(F)F [bitopertin]
reticulocyte hemoglobin (RET-He) ([1]; 30 or 60 mg/kg orally once daily day 7-15, DPO model (FIG. 2F)): significant reduction | mean corpuscular hemoglobin (MCH) ([1]; 30 or 60 mg/kg orally once daily day 7-15, DPO model (FIG. 2G)): significant reduction | mean corpuscular volume (MCV) ([1]; 30 or 60 mg/kg orally once daily day 7-15, DPO model (FIG. 2H)): slightly reduced | hematocrit (HCT %) ([1]; 30 or 60 mg/kg orally once daily day 7-15, DPO model, in a dose dependent manner (FIG. 2C)): reduced | RBC count ([1]; 30 or 60 mg/kg orally once daily day 7-15, DPO model, in a dose dependent manner (FIG. 2D)): reduced | Hemoglobin levels (HGB) ([1]; 30 or 60 mg/kg orally once daily day 7-15, DPO model, in a dose dependent manner (FIG. 2E)): reduced | hematocrit (HCT %) ([2]; EPO model, day 15 (FIG. 1E)): reduced | RBC count ([2]; EPO model, day 15 (FIG. 1F)): reduced | Hemoglobin levels ([2]; EPO model, day 15 (FIG. 1G)): reduced | spleen index (spleen weight / whole-body weight) ([2]; EPO 50 IU i.p. day 8-14, EPO + vehicle 1.56%, normal mice 0.39% (FIG. 1D)): 1.26% | body-weight changes [3]: No major body-weight changes | body-weight changes [5]: No major body-weight changes
